The subject of the assay is primed T cells. Description: total TGF-β production by TCR-stimulated primed T cells, Mv1Lu (CCL-64) bioassay. It is filed as cell-based, mouse (BALB/c). To be noted: 48 h. As for the experimental part: TGF-β bioassay. To measure total TGF-β, 100 μl of conditioned media was pretreated according to standard procedures (24) with 10 μl 1N HCL to lower the media pH to 2 and incubated for 1 hour at 4° C. The acid was neutralized with 20 μl of a 1:1 mixture of 1N NaOH: 1M HEPES returning the culture supernatant to a pH 7.3. The transiently acidified conditioned media was then used in the Mv1Lu assay; diluted 1:4 in EMEM+0.5% FBS. To the wells of a Falcon 96-well flat-bottom plate, 100 μl of diluted transiently acidified samples were added with 100 μl of 1×10^5 Mv1Lu cells (CCL-64; ATCC, Rockville, Md.). The plate was incubated for 20 hours at 37° C., 5% CO2 followed by the addition of 20 μl of 50 μCi/ml 3H-thymidine and the plate was incubated for an additional 4 hours. Supernatant was discarded and 50 μl of 10× Trypsin-EDTA (Biowhittaker, Walkersville, Md.) solution was added to each well and the plate was incubated for 15 minute at 37° C. The cells were collected onto filter paper using a Tomtec Plate Harvester 96 and counts per minute (CPM) of incorporation 3H-thymidine was measured using a Wallac 1205 Betaplate Liquid Scintillation Counter. Cultures of known amounts of purified activated TGF-β1, 20 ng/ml to 0.2 pg/ml (R&:D Systems), were prepared in the same plate for calculating a standard curve to quantify the concentration of total TGF-β in the samples.
Primed T Cell In Vitro Assays. From draining lymph nodes of BALB/c mice immunized 7 days previously with MT-Ag, primed T cells were isolated using CD3 enrichment columns (R&D Systems). T-cells (4×10^5 cells) suspended in serum-free media were added to the wells of a 96 well, round bottom plate (Corning). To the wells were added α-MSH (30 pg/ml) and anti-TCR antibody (2C11; 1 μg/ml) diluted in serum-free culture media. Various concentrations of TGF-β1 or TGF-β2 in media were added. In a second set of experiments TGF-β1 or TGF-β2 at a fixed concentration of 5 ng/ml were added to the wells at various times (0, 2, 4 and 6 hours) after addition of anti-TCR antibody. The cultures were incubated for 24 hours and 0.5 μCi of 3H-thymidine (NEM, Boston, Mass.) was added to the wells and the cultures were incubated for an additional 24 hours. The cells were collected and incorporated radiolabeled was measured by scintillation counting. Production of TGF-β by the treated primed T cells was done by centrifuging the culture plates 24 hours after the addition of anti-TCR antibody, removing the supernatant, washing the cultures once and adding fresh media. […]
FIG. 4 is a bar graph of TGF-β production by primed T cells TCR-stimulated in the presence of α-MSH. […] Significance (p=0.05) was determined by Student's t-test between TGF-β concentrations in cultures of activated α-MSH treated T cells and T cells activated in the absence of α-MSH. […]

“Also recorded” adds a separate entry of the source. No end group written: not given here.

“α-melanocyte stimulating hormone (SYSMEHFRWGKPV; not fully specified; ends and bridges not checked; UniProt P01189 138-150, looked up) [α-MSH, synthetic α-MSH (Peninsula Laboratories); thirteen-amino acid neuropeptide derived from POMC]”: the “TGF-β production by TCR-stimulated primed T cells” value (serum-free, transiently acidified supernatant) is listed as “enhanced levels; also recorded: significantly enhanced”. The “threshold of α-MSH concentration needed to induce TGF-β1 production” value (TCR-stimulated T cells) was determined as 30 pg/mL.

The record behind these values is US20060127400A1, “Activation of regulatory T cells by alpha-melanocyte stimulating hormone” (THE SCHEPENS EYE RESEARCH INSTITUTE, INC., priority 1999, published 2006).
